Assays:
PBMC [1] = test: Cytotoxicity against human PBMC at 60 ug/mL after 48 hrs by MTT assay; type: cell-based
PBMC [2] = test: Cytotoxicity against human PBMC at 40 ug/mL after 48 hrs by MTT assay; type: cell-based
PBMC [3] = test: Cytotoxicity against human PBMC at 20 ug/mL after 48 hrs by MTT assay; type: cell-based
Human alphaherpesvirus 2 [4] = test: Antiviral activity against HSV2 in human PBMC assessed as inhibition of viral replication at 20 ug/mL; type: functional
PBMC [5] = test: Induction of IFNalpha release in human PBMC at 20 ug/mL after 24 hrs by ELISA; type: functional
PBMC [6] = test: Induction of IFNalpha release in human PBMC at 20 ug/mL after 48 hrs by ELISA; type: functional
PBMC [7] = test: Induction of TNFalpha release in human PBMC at 20 ug/mL after 24 hrs by ELISA; type: functional
PBMC [8] = test: Induction of TNFalpha release in human PBMC at 20 ug/mL after 48 hrs by ELISA; type: functional
Human alphaherpesvirus 2 [9] = test: Antiviral activity against HSV2 in human PBMC assessed as inhibition of viral replication at 40 ug/mL; type: functional
PBMC [10] = test: Induction of IFNalpha release in human PBMC at 40 ug/mL after 24 hrs by ELISA; type: functional
PBMC [11] = test: Induction of IFNalpha release in human PBMC at 40 ug/mL after 48 hrs by ELISA; type: functional
PBMC [12] = test: Induction of TNFalpha release in human PBMC at 40 ug/mL after 24 hrs by ELISA; type: functional
PBMC [13] = test: Induction of TNFalpha release in human PBMC at 40 ug/mL after 48 hrs by ELISA; type: functional

Row | Structure (SMILES) | Activity (PBMC [1]) [%] | Activity (PBMC [2]) [%] | Activity (PBMC [3]) [%] | PFU/ml (Human alphaherpesvirus 2 [4]) | Activity (PBMC [5]) [pg/mL] | Activity (PBMC [6]) [pg/mL] | Activity (PBMC [7]) [pg/mL] | Activity (PBMC [8]) [pg/mL] | PFU/ml (Human alphaherpesvirus 2 [9]) | Activity (PBMC [10]) [pg/mL] | Activity (PBMC [11]) [pg/mL] | Activity (PBMC [12]) [pg/mL] | Activity (PBMC [13]) [pg/mL]
1 | O=C(OCCCCO[C@H]1O[C@H](CO[C@H]2O[C@H](CO[C@H]3O[C@H](CO)[C@@H](O)[C@H](O)[C@H]3O)[C@@H](O)[C@H](O)[C@H]2O)[C@@H](O)[C@H](O)[C@H]1O)c1cccc2c1-c1ccccc1C2=O | 42 | 19 | 0 | 70000 | <4.8 | 14 | <5.8 | 9 |  |  |  |  | 
2 | O=C(OCCO)c1cccc2c1-c1ccccc1C2=O | 14 | 6 | 0 | 58000 | <4.8 | 16 | <5.8 | 21 |  |  |  |  | 
3 | O=C(OCCCCO[C@H]1O[C@H](CO)[C@@H](O)[C@H](O)[C@H]1O)c1cccc2c1-c1ccccc1C2=O | 57 | 38 | 22 |  |  |  |  |  |  |  |  |  | 
4 | O=C(OCCCCO[C@@H]1O[C@H](CO)[C@@H](O[C@H]2O[C@H](CO)[C@@H](O)[C@H](O)[C@H]2O)[C@H](O)[C@H]1O)c1cccc2c1-c1ccccc1C2=O | 69 | 37 | 26 |  |  |  |  |  |  |  |  |  | 
5 | O=C(OCCCCO[C@@H]1O[C@H](CO[C@H]2O[C@H](CO)[C@@H](O)[C@H](O)[C@H]2O)[C@@H](O)[C@H](O)[C@H]1O)c1cccc2c1-c1ccccc1C2=O | 52 | 29 | 0 | 68000 | <4.8 | 9 | <5.8 | 15 |  |  |  |  | 
6 | O=C(NCCOCCO)c1ccc2c(c1)C(=O)c1ccccc1-2 | 4 | 0 | 0 | 5300 | <4.8 | 21 | <5.8 | 17 | 3900 | 6 | 38 | 24 | 48
7 | O=C(NCCOCCOC1O[C@H](COC2O[C@H](CO)[C@@H](O)[C@H](O)[C@H]2O)[C@@H](O)[C@H](O)[C@H]1O)c1ccc2c(c1)C(=O)c1ccccc1-2 (single isomer, unassigned) | 21 | 0 | 0 | 42000 | <4.8 | 14 | <5.8 | 16 | 35000 | <4.8 | 25 | <5.8 | 21
8 | O=C(NCCCCO)c1ccc2c(c1)C(=O)c1ccccc1-2 | 45 | 28 | 20 |  |  |  |  |  |  |  |  |  | 
9 | O=C(OCCCCO)c1cccc2c1-c1ccccc1C2=O | 38 | 21 | 0 | 71000 | <4.8 | 12 | <5.8 | 6 |  |  |  |  | 
10 | O=C(NCCOCCO[C@@H]1O[C@H](CO)[C@@H](O[C@H]2O[C@H](CO)[C@@H](O)[C@H](O)[C@H]2O)[C@H](O)[C@H]1O)c1ccc2c(c1)C(=O)c1ccccc1-2 | 18 | 0 | 0 | 53000 | <4.8 | 10 | <5.8 | 18 | 32000 | <4.8 | 30 | <5.8 | 27
11 | O=C(OCCCO)c1cccc2c1-c1ccccc1C2=O | 41 | 22 | 0 | 60000 | <4.8 | 8 | <5.8 | 11 |  |  |  |  | 
12 | O=C(NCCOCCO[C@@H]1O[C@H](CO)[C@@H](O)[C@H](O)[C@H]1O)c1ccc2c(c1)C(=O)c1ccccc1-2 | 6 | 0 | 0 | 49000 | <4.8 | 17 | 9 | 31 | 36000 | 8 | 31 | 13 | 39
13 | O=C(NCCOCCO[C@H]1O[C@H](CO)[C@@H](O)[C@H](O)[C@H]1O)c1ccc2c(c1)C(=O)c1ccccc1-2 | 16 | 0 | 0 | 60000 | <4.8 | 17 | <5.8 | 14 | 34000 | <4.8 | 31 | <5.8 | 30
14 | O=C(NCCCO)c1ccc2c(c1)C(=O)c1ccccc1-2 | 15 | 0 | 0 | 6500 | <4.8 | 7 | <5.8 | 40 | 4100 | 13 | 37 | 27 | 51
15 | CC(O)CNC(=O)c1ccc2c(c1)C(=O)c1ccccc1-2 (stereo unspecified) | 5 | 0 | 0 | 6000 | <4.8 | 18 | <5.8 | 20 | 3500 | 21 | 45 | 14 | 33
16 | O=C(NCCO)c1ccc2c(c1)C(=O)c1ccccc1-2 | 2 | 0 | 0 | 48000 | <4.8 | 11 | <5.8 | 13 | 37000 | 9 | 29 | 14 | 36
17 | O=C(OCCCCO[C@@H]1O[C@H](CO)[C@@H](O)[C@H](O)[C@H]1O)c1cccc2c1-c1ccccc1C2=O | 7 | 0 | 0 | 78000 | <4.8 | 10 | <5.8 | 18 | 36000 | <4.8 | 29 | <5.8 | 30

From ChEMBL document CHEMBL1154501, “2/4-Substituted-9-fluorenones and their O-glucosides as potential immunomodulators and anti-herpes simplex virus-2 agents. Part 5” (Eur J Med Chem, 2008)
